# Measured values: the Kinase Knowledgebase extract (Sharma et al. 2016)
# Molecular target: CDK2 (UniProt P24941)
# Assay: Enzyme Assay
# Details: concentration not given here
row,inhibition,SMILES
1,100%,COc1ccc(/C=C\C(=O)Nc2scc(C)c2C(N)=O)c(OC)c1
2,100%,CN1CCc2c(sc(NC(=O)Cc3ccccc3I)c2C(N)=O)C1
3,100%,CN1CCc2c(sc(NC(=O)c3sc4ccccc4c3Cl)c2C(N)=O)C1
4,100%,COc1ccc(C(=O)Nc2scc(C)c2C(N)=O)c(OC)c1OC
5,100%,Cc1csc(CC(=O)c2c(-c3ccccc3)noc2C)c1C(N)=O
6,100%,NC(=O)c1cc(-c2ccccc2)sc1NC(=O)/C=C/c1cccs1
7,100%,NC(=O)c1c(NC(=O)c2cccs2)sc2c1CCCC2
8,100%,CN1CCc2c(sc(NC(=O)CCc3nc4c([nH]3)c(=O)n(C)c(=O)n4C)c2C(N)=O)C1
9,100%,NC(=O)c1cc(-c2ccccc2)sc1NC(=O)CCN1CCCCC1
10,100%,Cc1ccc(C(=O)Nc2sc(C(C)C)cc2C(N)=O)cc1C
11,100%,CC1(C)CC(=O)C=C(C(=O)Nc2sc(Cc3ccccc3)cc2C(N)=O)O1
12,100%,NC(=O)c1c(NC(=O)c2ccc[nH]2)sc2c1CCCC2
13,100%,Cc1sc(NC(=O)c2cc(=O)c3ccccc3o2)c(C(N)=O)c1C
14,100%,Cc1nocc1C(=O)Nc1sc2c(c1C(N)=O)CCCC2
15,100%,COc1cc(C(=O)Nc2scc(C)c2C(N)=O)cc(OC)c1C
16,100%,Cc1csc(NC(=O)Cc2c(C)[nH]c3ccccc23)c1C(N)=O
17,100%,CC(c1ccccc1)c1cc(C(N)=O)c(NC(=O)Cc2cn(C)cn2)s1 (configuration not stated)
18,100%,Cc1nc2cc(C(=O)Nc3sc(C)c(C)c3C(N)=O)ccc2[nH]1
19,100%,CC(C)c1cc(C(N)=O)c(NC(=O)CCc2cccnc2)s1
20,100%,Cc1csc(NC(=O)Cc2c[nH]c3ccc(O)cc23)c1C(N)=O
21,100%,COc1cc(CC(=O)Nc2scc(C)c2C(N)=O)cc(OC)c1
22,100%,Cc1sc(NC(=O)c2ccc(OC(C)C)cc2)c(C(N)=O)c1C
23,100%,CN1CCc2c(sc(NC(=O)CCN3C(=O)c4ccccc4C3=O)c2C(N)=O)C1
24,100%,Cc1csc(NC(=O)c2ccc(S(C)(=O)=O)cc2)c1C(N)=O
25,100%,Cc1sc(NC(=O)c2cccc(Cl)c2Cl)c(C(N)=O)c1C
26,100%,Cc1ccccc1CC(=O)Nc1sc(C(C)C)cc1C(N)=O
27,100%,CN1CCc2c(sc(NC(=O)Cc3ccc(S(C)(=O)=O)cc3)c2C(N)=O)C1

row,inhibition,SMILES
1,100%,Cc1sc(NC(=O)Cn2cc(C)c(=O)[nH]c2=O)c(C(N)=O)c1C
2,100%,Cc1csc(NC(=O)C2=COc3ccc(Cl)cc3C2)c1C(N)=O
3,100%,Cc1csc(NC(=O)c2cccc(S(C)(=O)=O)c2)c1C(N)=O
4,100%,Cc1sc(NC(=O)CCC(=O)c2cccs2)c(C(N)=O)c1C
5,100%,Cc1csc(NC(=O)CCn2ccc3ccccc32)c1C(N)=O
6,100%,Cc1csc(NC(=O)c2ccccc2S(C)(=O)=O)c1C(N)=O
7,100%,CN1CCc2c(sc(NC(=O)c3ccc(I)cc3)c2C(N)=O)C1
8,100%,Cc1sc(NC(=O)c2cc3cc(O)ccc3[nH]2)c(C(N)=O)c1C
9,100%,Cc1sc(NC(=O)c2cc(Cl)ccc2Cl)c(C(N)=O)c1C
10,100%,COc1cccc2cc(C(=O)Nc3sc(C)c(C)c3C(N)=O)oc12
11,100%,CC(C)c1cc(C(N)=O)c(NC(=O)CCc2ccccc2)s1
12,100%,CC(=O)c1ccc(C(=O)Nc2sc(Cc3ccccc3)cc2C(N)=O)cc1
13,100%,Cc1csc(NC(=O)CS(=O)(=O)c2ccccc2)c1C(N)=O
14,100%,CN1CCc2c(sc(NC(=O)Cc3ccc(I)cc3)c2C(N)=O)C1
15,100%,Cc1sc(NC(=O)CCCC(=O)c2ccccc2)c(C(N)=O)c1C
16,100%,Cc1csc(NC(=O)c2nn(-c3ccccc3)nc2C)c1C(N)=O
17,100%,CC(C)c1cc(C(N)=O)c(NC(=O)CCNC(N)=O)s1
18,100%,Cc1sc(NC(=O)c2cccc(C(F)(F)F)c2)c(C(N)=O)c1C
19,100%,Cc1sc(NC(=O)c2ccccc2-n2cccc2)c(C(N)=O)c1C
20,100%,NC(=O)c1c(NC(=O)Cc2ccccc2)sc2c1CCCC2
21,100%,Cc1ccoc1C(=O)Nc1sc2c(c1C(N)=O)CCCC2
22,100%,Cc1csc(NC(=O)CCCCCN2C(=O)C=CC2=O)c1C(N)=O
23,100%,Cc1ccc(S(=O)(=O)CC(=O)Nc2sc3c(c2C(N)=O)CCN(C)C3)cc1
24,100%,Cc1ccc(CC(=O)Nc2sc(C(C)C)cc2C(N)=O)cc1
25,100%,COc1ccccc1OCC(=O)Nc1sc(C)c(C)c1C(N)=O
26,100%,Cc1cccc(C(=O)Nc2sc(C(C)C)cc2C(N)=O)c1C
27,100%,Cc1sc(NC(=O)c2ccc(Cl)cc2Cl)c(C(N)=O)c1C

# The next lines start with the compound.
row,SMILES,inhibition
1,CC(C)c1cc(C(N)=O)c(NC(=O)/C=C\c2ccccc2)s1,100%
2,NC(=O)c1c(NC(=O)C2CC2)sc2c1CCCC2,100%
3,COc1cccc(C(=O)Nc2sc(Cc3ccccc3)cc2C(N)=O)c1O,100%
4,CC(=O)Nc1cccc(C(=O)Nc2sc(C(C)c3ccccc3)cc2C(N)=O)c1 (configuration not stated),100%
5,NC(=O)c1cc(Cc2ccccc2)sc1NC(=O)/C=C\c1cccc(O)c1,100%
6,NC(=O)c1cc(Cc2ccccc2)sc1NC(=O)COc1ccc(O)cc1,100%
7,NC(=O)c1cc(Cc2ccccc2)sc1NC(=O)c1cc2ccccc2[nH]1,100%
8,NC(=O)c1cc(-c2ccccc2)sc1NC(=O)Cc1cccc(O)c1,100%
9,COc1ccc(C)c(C(=O)Nc2sc(Cc3ccccc3)cc2C(N)=O)c1,100%
10,NC(=O)c1c(NC(=O)C2CCCC2)sc2c1CCCC2,100%
11,CCC(N)C(=O)N(C(N)=O)c1sc(C(C)C)cc1C(N)=O (configuration not stated),100%
12,CC(=O)NC(=O)C1CCCN1c1sc(-c2ccccc2)cc1C(N)=O (configuration not stated),100%
13,NC(=O)/C=C\C(=O)N(C(N)=O)c1sc(Cc2ccccc2)cc1C(N)=O,100%
14,CC(C)c1cc(C(N)=O)c(NC(=O)C2CCCCCC2)s1,100%
15,CC(c1ccccc1)c1cc(C(N)=O)c(NC(=O)c2cc3ccccc3s2)s1 (configuration not stated),100%
16,CN1CCc2c(sc(NC(=O)c3cc(O)c4ccc(Br)cc4n3)c2C(N)=O)C1,100%
17,CC(c1ccccc1)c1cc(C(N)=O)c(NC(=O)c2cc(Cl)ccc2O)s1 (configuration not stated),100%
18,CN(C)c1ccccc1C(=O)Nc1sc(Cc2ccccc2)cc1C(N)=O,100%
19,CC(C)c1cc(C(N)=O)c(NC(=O)C(C)c2ccccc2)s1 (configuration not stated),100%
20,Cc1cc(C)cc(C(=O)Nc2sc(C(C)C)cc2C(N)=O)c1,100%

row,SMILES,inhibition
1,NC(=O)c1cc(-c2ccccc2)sc1NC(=O)c1ccc2cc[nH]c2c1,100%
2,NC(=O)c1cc(-c2ccccc2)sc1NC(=O)Cc1ccc(O)cc1,100%
3,NC(=O)c1cc(-c2ccccc2)sc1NC(=O)c1ccccc1Cl,100%
4,CC(c1ccccc1)c1cc(C(N)=O)c(NC(=O)c2ccc(Cl)cc2O)s1 (configuration not stated),100%
5,CC(c1ccccc1)c1cc(C(N)=O)c(NC(=O)CC2CCc3ccccc32)s1 (configuration not stated),100%
6,NC(=O)c1cc(Cc2ccccc2)sc1NC(=O)c1ccc2c(c1)OCO2,100%
7,NC(=O)c1cc(Cc2ccccc2)sc1NC(=O)c1cccc2[nH]ccc12,100%
8,NC(=O)CN(C(=O)c1ccco1)c1sc(Cc2ccccc2)cc1C(N)=O,100%
9,NC(=O)c1cc(-c2ccccc2)sc1NC(=O)c1cc2ccccc2o1,100%
10,CC(=O)N1CCC(C(=O)Nc2sc(C(C)c3ccccc3)cc2C(N)=O)CC1 (configuration not stated),100%
11,NC(=O)c1cc(-c2ccccc2)sc1NC(=O)Cc1cccc(F)c1,100%
12,CC(c1ccccc1)c1cc(C(N)=O)c(NC(=O)c2cnc3ccccc3c2)s1 (configuration not stated),100%
13,NC(=O)c1ccccc1C(=O)Nc1sc(Cc2ccccc2)cc1C(N)=O,100%
14,CC(c1ccccc1)c1cc(C(N)=O)c(NC(=O)c2ccc3ccccc3c2)s1 (configuration not stated),100%
15,CC(c1ccccc1)c1cc(C(N)=O)c(NC(=O)C2CC(=O)c3ccccc32)s1 (configuration not stated),100%
16,NC(=O)c1cc(-c2ccccc2)sc1NC(=O)c1cccnc1Cl,100%
17,CC(C)c1cc(C(N)=O)c(NC(=O)c2ccc(O)cc2)s1,100%
18,CC(c1ccccc1)c1cc(C(N)=O)c(NC(=O)c2cnc3ccccc3n2)s1 (configuration not stated),100%
19,CN1CCc2c(sc(NC(=O)C(Cc3c[nH]cn3)NC(=O)c3ccccc3)c2C(N)=O)C1 (configuration not stated),100%
20,Cc1cnc(C(=O)Nc2sc(C(C)C)cc2C(N)=O)cn1,100%

row,SMILES,inhibition
1,NC(=O)c1c(NC(=O)c2c[nH]nc2N)sc2c1CCCC2,100%
2,CC(=O)NC(=O)C(CC(C)C)Nc1sc(C(C)c2ccccc2)cc1C(N)=O (configuration not stated),100%
3,Cc1ccc(C(=O)Nc2sc(-c3ccccc3)cc2C(N)=O)cc1O,100%
4,NC(=O)c1cc(-c2ccccc2)sc1NC(=O)c1cccc(Cl)c1,100%
5,CC(c1ccccc1)c1cc(C(N)=O)c(NC(=O)C2CCc3ccccc3C2)s1 (configuration not stated),100%
6,NC(=O)c1cc(-c2ccccc2)sc1NC(=O)/C=C/c1ccsc1,100%
7,NC(=O)c1c(NC(=O)c2cn[nH]c2)sc2c1CCCC2,100%
8,CC(c1ccccc1)c1cc(C(N)=O)c(NC(=O)c2ccnc3ccccc23)s1 (configuration not stated),100%
9,CC(=O)CC(=O)N(CC(N)=O)c1sc(-c2ccccc2)cc1C(N)=O,100%
10,N#CC1(C(=O)Nc2sc3c(c2C(N)=O)CCCC3)CC1,100%
11,COc1ccc(C(=O)Nc2sc(Cc3ccccc3)cc2C(N)=O)cc1O,100%
12,CC(c1ccccc1)c1cc(C(N)=O)c(NC(=O)C2=CN(C)CCC2)s1 (configuration not stated),100%
13,NC(=O)c1c(NC(=O)c2ccccc2O)sc2c1CCCC2,100%
14,NC(=O)c1cc(-c2ccccc2)sc1NC(=O)CC1CCCCCC1,100%
15,CCCN(CCC)C(=O)[C@H](C)Nc1sc(C(C)c2ccccc2)cc1C(N)=O (some centres not stated),100%
16,CC(=O)N(CC(N)=O)c1sc2c(c1C(N)=O)CCCC2,100%
17,CC(c1ccccc1)c1cc(C(N)=O)c(NC(=O)c2ccc3ncccc3c2)s1 (configuration not stated),100%
18,CC(c1ccccc1)c1cc(C(N)=O)c(NC(=O)c2cnnc3ccccc23)s1 (configuration not stated),100%
